Target: T1, Adenosine deaminase (Bos taurus, UniProt P56658)
T1 sequence (P56658 whole entry): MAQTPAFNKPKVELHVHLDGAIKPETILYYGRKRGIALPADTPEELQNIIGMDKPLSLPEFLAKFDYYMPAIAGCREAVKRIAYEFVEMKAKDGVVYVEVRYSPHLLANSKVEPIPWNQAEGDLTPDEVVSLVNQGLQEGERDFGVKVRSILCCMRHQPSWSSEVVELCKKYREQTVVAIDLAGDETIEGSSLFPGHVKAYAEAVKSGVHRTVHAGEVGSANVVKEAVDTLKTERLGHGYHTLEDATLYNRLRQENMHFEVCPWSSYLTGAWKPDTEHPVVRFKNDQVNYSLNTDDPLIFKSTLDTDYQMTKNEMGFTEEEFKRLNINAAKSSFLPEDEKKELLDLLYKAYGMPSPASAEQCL
Experiment: Binding affinity towards calf spleen adenosine deaminase was determined

Compound | Ki [µM]
CCCCOC1c2c(ncn2Cc2ccc(OC)cc2)N=CN(C)N1C (stereo not drawn) | 15
COc1ccc(COC2c3c(ncn3Cc3ccc(OC)cc3)N=CN(C)N2C)cc1 (stereo not drawn) | 77
COc1ccc(Cn2cnc3c2C(OC)N(C)N(C)C=N3)cc1 (stereo not drawn) | 24
CCOC1c2c(ncn2Cc2ccc(OC)cc2)N=CN(C)N1C (stereo not drawn) | 20
COCCOC1c2c(ncn2Cc2ccc(OC)cc2)N=CN(C)N1C (stereo not drawn) | 23

Further compounds by falling Ki, results first:

Ki [µM] | Compound
93 | COc1ccc(Cn2cnc3c2C(OCc2cccc(C)c2)N(C)N(C)C=N3)cc1 (stereo not drawn)
30 | COc1ccc(Cn2cnc3c2C(OC(C)C)N(C)N(C)C=N3)cc1 (stereo not drawn)
12 | CCCOC1c2c(ncn2Cc2ccc(OC)cc2)N=CN(C)N1C (stereo not drawn)
